The target of assay [1] is Mitogen-activated protein kinase 14 (Homo sapiens) (UniProt Q16539). Description: p38 MAPK abundance shift in treated cells – DLD1 cells, chemiluminescent western blot, powder samples, counter-screen for KLF5 inhibitor project, late-stage follow-up (AID 588615). The following applies: DLD-1 cells, p38 western blot, 24 h; at 10 µM; stronger effect = higher value. A general note: Immunoblotting shows a protein as a band on a membrane.

Assay [2] concerns DLD-1 cells, p38 western blot, 24 h. Described as above. The following applies: measured here: p38 band fold change vs DMSO; at 10 µM.

The inhibition is the drop in the measured response relative to a control, in per cent.

Calls of active or inactive are those of the source.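 The calls were made as follows: active = p38 protein level shifted by 30% or more versus DMSO-treated cells, either down or up; inactive = shift in p38 protein level below 30%.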

Sequence of Mitogen-activated protein kinase 14 (Homo sapiens) (Q16539 whole entry, looked up): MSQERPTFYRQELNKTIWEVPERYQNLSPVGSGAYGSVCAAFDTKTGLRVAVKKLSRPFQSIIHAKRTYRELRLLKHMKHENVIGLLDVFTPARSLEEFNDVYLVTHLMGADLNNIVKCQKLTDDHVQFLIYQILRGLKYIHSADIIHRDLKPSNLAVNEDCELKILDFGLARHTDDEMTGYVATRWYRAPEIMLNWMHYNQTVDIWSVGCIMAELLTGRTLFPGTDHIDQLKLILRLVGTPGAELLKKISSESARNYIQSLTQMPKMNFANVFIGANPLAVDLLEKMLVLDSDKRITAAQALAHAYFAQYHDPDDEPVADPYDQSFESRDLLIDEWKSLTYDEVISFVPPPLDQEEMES

With `CN(C(=O)CNC(=O)/C=C/c1cccc(Cl)c1)C1CCS(=O)(=O)CC1`, in assay [1], the inhibition was 12.3% (inactive).

Regarding `CN(C(=O)COC(=O)/C=C/c1cccc([N+](=O)[O-])c1)C1CCS(=O)(=O)C1` (centres undefined), in assay [1], the inhibition is 19.9% (inactive).

Turning to `CN(C(=O)CNC(=O)/C=C/c1cccc(Cl)c1)C1CCS(=O)(=O)C1` (centres undefined), in assay [1], the inhibition is -5.46% (inactive). For the same molecule, the fold change in assay [2] was 1.05.
